From article PMC5373622, “Screening for AMPA receptor auxiliary subunit specific modulators” (PLoS ONE, 2017)
“And” between values parts separate entries of the source, which are not always exact repeats. Equal values may be shown once. Read-outs that look alike come from different tables or passages of the source.

Assays:
[1] = test system: GluA2-stargazin; details: previously reported; cited from earlier work
[2] = target: GluA2flip(R)-CNIH3 (A2R-C3 TetON HEK293 cells) (Homo sapiens, UniProt P42262, Q607R); assay: VSD assay (counter-screen, CRC) on A2R-C3 cells; details: for CMPDmaxmin: max-min 8-100 s; for CMPDmaxmin / CMPDSlope: compound only; for Glumaxmin: max-min normalized value 301-380 s; for Glumaxmin / GluSlope: compound+glutamate; for BaselineReturn: max 250-255 s minus min 0-5 s; for GluSlope: slope of normalized value 310-315 s; for CMPDSlope: slope 11-18 s
Text: Cell lines used in the VSD assays were TetON HEK293 cells. This was the parental cell line for all stable cell lines created. We used GluA2flip(R) TetON HEK cell clone #4 that doxycycline (DOX) dependently expresses GluA2flip(R) (A2R). The A2R cells were used as the base cell line to derive cell lines that co-express auxiliary subunits.
(§1) Greiner 384-pp round-bottom plates containing glutamate for the second add were dispensed by hand using a multi-channel pipet at 5X final concentration. A2R-stg cells were plated in 384-well BD PureCoat amine-coated plates (Corning Life Sciences) at 16k cells/well in DMEM medium supplemented with 10% heat-inactivated FBS and 100U/mL PenStrep antibiotic. […] Cells were incubated overnight (O/N) and washed 4 times in HBSS containing 20 mM HEPES, pH 7.4, on an ELX405CW liquid aspirator and dispenser (BioTek). Buffer was left in the wells and an equal amount of 2X FLIPR dye solution was added and incubated on the cells at room temperature for 45 min. Fluorescence signal was collected at 1 Hz using Ex. 480±20 nm/Em. 540±40 nm on a Hamamatsu Functional Drug Screening System 6000 (FDSS). Baseline signal was collected for 10 seconds followed by addition of 10 μl of 5X compound for a final concentration of 10 μM.
This assay was carried out in the same way as the VSD screening assay except a 10-point concentration curve, from 40 μM to 10 nM, was plated in triplicate for each compound on a single 384-well plate. Data were summarized by plotting them as %max GLUslope against log [compound] that was fit to a four-parameter logistical model. %max GLUslope is defined as a normalized GLUslope expressed as a percentage of the mean maximum GLUslope, defined as 100, where background mean vehicle control (VHLslope) were subtracted from both values on a per plate basis. Thus, %max GLU slope = (GLUslope-mean VHLslope/mean maxGLUslope-mean VHLslope).

[3] = target: GluA2flip(R)-stargazin (A2R-stg TetON HEK293 cells) (Homo sapiens, UniProt P42262, Q607R); assay: Voltage-sensitive dye (VSD) assay (primary screen, counter-screen, CRC) on A2R-stg cells; details: for CMPDmaxmin (maximal - minimal normalized value, 8-100 s, only compound present) / pctMAX (Glumaxmin as percentage MAX) / pctMAXslope (GluSlope as percentage MAX) / pctMAXslopeCMPD (CMPDSlope as percentage MAX): per well, plate 58169DST7
GluA2flip(R)-stargazin (A2R-stg TetON HEK293 cells), sequence (P42262 25-883 isoform P42262-2 Q607R limits assumed): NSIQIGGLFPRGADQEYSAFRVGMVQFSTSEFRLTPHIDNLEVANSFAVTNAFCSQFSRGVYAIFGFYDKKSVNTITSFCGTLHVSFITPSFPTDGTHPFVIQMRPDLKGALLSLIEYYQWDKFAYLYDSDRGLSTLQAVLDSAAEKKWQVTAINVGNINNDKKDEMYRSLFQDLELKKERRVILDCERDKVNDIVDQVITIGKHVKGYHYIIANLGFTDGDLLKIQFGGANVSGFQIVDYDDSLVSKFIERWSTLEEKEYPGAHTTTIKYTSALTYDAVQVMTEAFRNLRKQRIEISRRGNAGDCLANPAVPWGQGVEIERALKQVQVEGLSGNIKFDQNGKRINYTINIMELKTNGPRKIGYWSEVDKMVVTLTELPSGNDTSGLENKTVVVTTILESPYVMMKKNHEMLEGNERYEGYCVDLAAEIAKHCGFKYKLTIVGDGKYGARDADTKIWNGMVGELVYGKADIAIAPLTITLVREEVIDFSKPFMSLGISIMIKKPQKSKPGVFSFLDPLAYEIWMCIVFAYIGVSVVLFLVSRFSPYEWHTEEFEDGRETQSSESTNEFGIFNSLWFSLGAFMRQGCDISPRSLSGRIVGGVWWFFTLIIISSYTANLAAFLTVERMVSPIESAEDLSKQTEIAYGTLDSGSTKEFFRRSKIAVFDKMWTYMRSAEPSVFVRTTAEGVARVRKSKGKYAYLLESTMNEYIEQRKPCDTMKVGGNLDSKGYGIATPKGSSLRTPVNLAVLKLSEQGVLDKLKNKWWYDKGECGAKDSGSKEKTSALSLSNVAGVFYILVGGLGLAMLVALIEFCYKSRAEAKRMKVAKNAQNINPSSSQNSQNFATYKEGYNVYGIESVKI
GluA2flip(R)-stargazin (A2R-stg TetON HEK293 cells), sequence (Q9Y698 whole entry partner): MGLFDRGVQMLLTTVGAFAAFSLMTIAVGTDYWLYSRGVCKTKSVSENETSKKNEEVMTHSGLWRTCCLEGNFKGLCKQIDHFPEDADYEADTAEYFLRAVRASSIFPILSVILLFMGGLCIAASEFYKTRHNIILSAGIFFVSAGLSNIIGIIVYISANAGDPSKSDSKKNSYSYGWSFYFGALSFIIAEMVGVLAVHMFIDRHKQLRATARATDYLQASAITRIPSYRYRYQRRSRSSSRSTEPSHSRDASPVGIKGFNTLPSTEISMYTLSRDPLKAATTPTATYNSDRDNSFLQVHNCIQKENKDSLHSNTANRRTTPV
Experimental: Cell lines used in the VSD assays were TetON HEK293 cells. […] We used GluA2flip(R) TetON HEK cell clone #4 that doxycycline (DOX) dependently expresses GluA2flip(R) (A2R). The A2R cells were used as the base cell line to derive cell lines that co-express auxiliary subunits.
as §1
Hits were selected from this initial screen using 4 different criteria, which we termed CMPDslope, CMPDmaxmin, GLUslope, and GLUmaxmin. […] GLUslope is the fitted slope of the increase in fluorescence within 10 sec after adding glutamate. GLUmaxmin is the difference in the minimum and maximum value in fluorescence signal reached in the 100 sec window after adding glutamate. Compounds were classified as hits if they differed by 3 standard deviations of the mean for each criterion. Tier 1 hits were classified as those that hit in the GLUslope, GLUmaxmin, and CMPDmaxmin windows. Tier 2 hits were classified as compounds that hit in the GLUslope window and either the GLUmaxmin or CMPDmaxmin window. Tier 3 hits were classified as those that hit in only the GLUslope or the GLUmaxmin window. Tier 4 hits were classified as compounds that hit only in the CMPD window, CMPDslope or CMPDmaxmin. Hit selection was further narrowed using the criterion that their signal must return to near baseline values before entering the glutamate add window.
VSD concentration response curves (CRCs): After the above counter-screens, compounds that remained positive were moved forward to collect complete CRCs for A2R-stg and A2R-C3 cell lines. This assay was carried out in the same way as the VSD screening assay except a 10-point concentration curve, from 40 μM to 10 nM, was plated in triplicate for each compound on a single 384-well plate. Data were summarized by plotting them as %max GLUslope against log [compound] that was fit to a four-parameter logistical model. %max GLUslope is defined as a normalized GLUslope expressed as a percentage of the mean maximum GLUslope, defined as 100, where background mean vehicle control (VHLslope) were subtracted from both values on a per plate basis. Thus, %max GLU slope = (GLUslope-mean VHLslope/mean maxGLUslope-mean VHLslope).

GluA2flip(R)-CNIH3 (A2R-C3 TetON HEK293 cells), sequence (P42262 25-883 isoform P42262-2 Q607R limits assumed): as the sequence (P42262 25-883 isoform P42262-2 Q607R limits assumed) above
GluA2flip(R)-CNIH3 (A2R-C3 TetON HEK293 cells), sequence (Q8TBE1 whole entry partner): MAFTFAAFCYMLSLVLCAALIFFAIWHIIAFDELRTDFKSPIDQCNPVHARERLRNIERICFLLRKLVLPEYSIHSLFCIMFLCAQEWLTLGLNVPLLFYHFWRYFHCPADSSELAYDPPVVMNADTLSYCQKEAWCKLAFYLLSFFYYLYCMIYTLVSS

For `O=C(c1ccc2c(c1)OCCO2)N1CCCCC1` [CX-546, 1-(1,4-benzodioxan-6-ylcarbonyl)piperidine], the EC50 [1] is listed as 563 µM, the CMPDmaxmin ([2]; 3.90625e-6 M ligand, per well) is listed as 0.02275 and 0.02429 and 0.01798 and 0.02168 and the CMPDmaxmin ([2]; 7.8125e-6 M ligand, per well) is listed as 0.02523 and 0.02353 and 0.02165 and 0.01735. For the same molecule, the Glumaxmin ([2]; 7.8125e-6 M ligand, per well) was 0.04101 and 0.05338 and 0.04284 and 0.03307 and 0.0299 and 0.0291, the CMPDmaxmin ([2]; 6.25e-5 M ligand, per well) was 0.02083 and 0.02655 and 0.02189 and 0.02084 and 0.01632 and the Glumaxmin ([2]; 6.25e-5 M ligand, per well) was 0.04091 and 0.0333 and 0.02423 and 0.04193 and 0.044 and 0.03344. The BaselineReturn ([2]; 0.00025 M ligand, per well) was 0.0251 and 0.02832 and 0.03028 and 0.03411 and 0.02776 and 0.02771, the CMPDmaxmin ([2]; 0.00025 M ligand, per well) was 0.02518 and 0.02777 and 0.02573 and 0.03151 and 0.03447 and 0.02604 and the Glumaxmin ([2]; 0.00025 M ligand, per well) was 0.07039 and 0.07337 and 0.08523 and 0.112 and 0.08025. The GluSlope ([2]; 0.00025 M ligand, per well) was 6.934e-6 and 8.592e-6 and 7.437e-6 and 1.202e-5 and 1.111e-5 and 6.283e-6, the BaselineReturn ([2]; 0.0005 M ligand, per well) was 0.05295 and 0.05148 and 0.05075 and 0.04719 and 0.05673 and 0.04937 and the CMPDmaxmin ([2]; 0.0005 M ligand, per well) was 0.05637 and 0.05305 and 0.05109 and 0.05302 and 0.05564 and 0.06158. The Glumaxmin ([2]; 0.0005 M ligand, per well) was 0.1143 and 0.1458 and 0.1743, the CMPDSlope ([2]; 0.0005 M ligand, per well) was 2.7882e-6 and 3.22e-6 and 3.04e-6 and 3.857e-6 and 3.969e-6 and 3.136e-6 and the GluSlope ([2]; 0.0005 M ligand, per well) was 1.038e-5 and 1.007e-5 and 1.121e-5 and 1.228e-5 and 1.22e-5 and 1.66e-5. For the same molecule, the BaselineReturn ([2]; 0.001 M ligand, per well) was 0.1285 and 0.1243 and 0.1327 (2×) and 0.1383 and 0.1333, the CMPDmaxmin ([2]; 0.001 M ligand, per well) was 0.1223 and 0.1248 and 0.1314 and 0.1303 and 0.1374 and 0.1301 and the CMPDSlope ([2]; 0.001 M ligand, per well) was 6.79e-6 and 6.675e-6 and 5.635e-6 and 5.488e-6 and 6.247e-6 and 7.073e-6. For the same molecule, the activity at 250 µM ([2]; HEK293, read-out: AVE %MAXCMPDslope, 0.00025 M ligand, average over wells) was 20.2%, the activity at 1000 µM ([2]; HEK293, read-out: AVE %MAXCMPDslope, 0.001 M ligand, average over wells) was 29.1% and the activity at […] ([2]; HEK293, read-out: AVE %MAXCMPDslope, […] ligand, average over wells) was 18.9%. For the same molecule, the activity at 250 µM ([2]; HEK293, read-out: AVE %MAXslope, 0.00025 M ligand, average over wells) was 33.8%, the activity at 500 µM ([2]; HEK293, read-out: AVE %MAXslope, 0.0005 M ligand, average over wells) was 40.3% and the activity at 1000 µM ([2]; HEK293, read-out: AVE %MAXslope, 0.001 M ligand, average over wells) was 54.1%. For the same molecule, the activity at […] ([2]; HEK293, read-out: AVE %MAXslope, […] ligand, average over wells) was 25.6%, the activity at 250 µM ([2]; HEK293, read-out: pctMAXslope, 0.00025 M ligand, GluSlope as percentage MAX, per well) was 30.3% and the activity at 500 µM ([2]; HEK293, read-out: pctMAXslope, 0.0005 M ligand, GluSlope as percentage MAX, per well) was 37%. For the same molecule, the activity at […] ([2]; HEK293, read-out: pctMAXslope, […] ligand, GluSlope as percentage MAX, per well) was 21%, the activity at 250 µM ([2]; HEK293, read-out: pctMAXslopeCMPD, 0.00025 M ligand, CMPDSlope as percentage MAX of GluSlope controls, per well) was 19.4% and the activity at 500 µM ([2]; HEK293, read-out: pctMAXslopeCMPD, 0.0005 M ligand, CMPDSlope as percentage MAX of GluSlope controls, per well) was 22.3%. It also gave an activity at 1000 µM ([2]; HEK293, read-out: pctMAXslopeCMPD, 0.001 M ligand, CMPDSlope as percentage MAX of GluSlope controls, per well) of 30%, an activity at […] ([2]; HEK293, read-out: pctMAXslopeCMPD, […] ligand, CMPDSlope as percentage MAX of GluSlope controls, per well) of 18.5% and an EC50 [3] of 59.4 µM. The “CMPDmaxmin (maximal - minimal normalized value, 8-100 s, only compound present)” value ([3]; 3.90625e-6 M) was 0.02005 and 0.02265 and 0.02255 and 0.0215 and 0.02263, the “pctMAX (Glumaxmin as percentage MAX)” value ([3]; 3.90625e-6 M) was -20.3423% and -18.5877% and -17.4231% and -25.653% and -23.4431% and the “pctMAXslope (GluSlope as percentage MAX)” value ([3]; 3.90625e-6 M) was 19.0119% and 16.1163% and 16.1435% and 23.5293% and 24.5477% and 19.9769%. For the same molecule, the “pctMAXslopeCMPD (CMPDSlope as percentage MAX)” value ([3]; 3.90625e-6 M) was 26.8078% and 27.859% and 27.6784% and 25.3948% and 25.8066% and 27.049%, the “CMPDmaxmin (maximal - minimal normalized value, 8-100 s, only compound present)” value ([3]; 7.8125e-6 M) was 0.02204 and 0.02518 and 0.02221 and 0.01901 and the “pctMAXslope (GluSlope as percentage MAX)” value ([3]; 7.8125e-6 M) was 18.0524% and 15.893% and 18.8435% and 18.5798% and 25.5404% and 27.1839%. For the same molecule, the “pctMAXslopeCMPD (CMPDSlope as percentage MAX)” value ([3]; 7.8125e-6 M) was 27.7492% and 27.8022% and 28.8582% and 27.2592% and 26.4835% and 26.0048%, the “CMPDmaxmin (maximal - minimal normalized value, 8-100 s, only compound present)” value ([3]; 1.5625e-5 M) was 0.02181 and 0.01695 and 0.02869 and 0.01943 and 0.02297 and the “pctMAXslopeCMPD (CMPDSlope as percentage MAX)” value ([3]; 1.5625e-5 M) was 28.6064% and 25.6086% and 27.9557% and 25.483% and 25.9044% and 26.6639%. The “pctMAX (Glumaxmin as percentage MAX)” value ([3]; 3.125e-5 M) was -24.1315% and -27.3641% and -24.1538% and -25.136% and -22.907% and -18.6431% and the “pctMAXslope (GluSlope as percentage MAX)” value ([3]; 3.125e-5 M) was 27.6745% and 23.6277% and 22.7715% and 21.1161% and 24.5423% and 29.8099%.
